The values below come from patent US8541418B2, “Inhibitors of polo-like kinase” (Elan Pharmaceutical, Inc., priority 2009, dated 2013).

Assay type in all cases: biochemical
The target of one experiment is PLK1 (Homo sapiens, UniProt P53350). Nature of the experiment: PLK TR-FRET peptide assay, PLK1. Conditions: GST-PLK1, 60 min reaction. Background: Time-resolved FRET reads energy transfer from a long-lived donor to a nearby acceptor.
Another experiment deals with PLK2 (Homo sapiens, UniProt Q9NYY3). In words: PLK TR-FRET peptide assay, PLK2. Conditions: for IC50: read-out: Plk2 IC50.
For a further experiment, the target named is PLK3 (Homo sapiens, UniProt Q9H4B4). In words: PLK TR-FRET peptide assay, PLK3. To be noted: GST-PLK3, 15 min reaction, read-out: Plk3 IC50.
Setting [1] is: PLK TR-FRET peptide assay, GST-PLK2, 60 min reaction.

Read-outs that look alike come from different tables or passages of the source.

Sequence of PLK2 (Q9NYY3 whole entry): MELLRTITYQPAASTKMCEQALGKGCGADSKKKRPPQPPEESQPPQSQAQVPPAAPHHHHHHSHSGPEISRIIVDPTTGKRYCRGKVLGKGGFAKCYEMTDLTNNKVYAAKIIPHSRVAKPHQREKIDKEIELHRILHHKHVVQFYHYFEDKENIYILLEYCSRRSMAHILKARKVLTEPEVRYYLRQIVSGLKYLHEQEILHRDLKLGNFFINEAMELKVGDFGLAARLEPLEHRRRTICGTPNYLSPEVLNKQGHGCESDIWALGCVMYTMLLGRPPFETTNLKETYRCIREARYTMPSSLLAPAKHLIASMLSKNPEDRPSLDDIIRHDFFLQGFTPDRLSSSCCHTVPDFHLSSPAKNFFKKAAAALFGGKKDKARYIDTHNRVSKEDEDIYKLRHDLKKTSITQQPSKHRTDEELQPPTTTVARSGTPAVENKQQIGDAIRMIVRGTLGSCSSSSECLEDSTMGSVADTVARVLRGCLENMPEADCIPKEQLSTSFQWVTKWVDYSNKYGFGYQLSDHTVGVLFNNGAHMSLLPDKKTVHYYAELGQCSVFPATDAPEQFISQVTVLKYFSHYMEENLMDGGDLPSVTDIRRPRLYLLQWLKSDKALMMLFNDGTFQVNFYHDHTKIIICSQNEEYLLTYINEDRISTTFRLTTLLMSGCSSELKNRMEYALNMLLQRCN
Sequence of PLK3 (Q9H4B4 whole entry): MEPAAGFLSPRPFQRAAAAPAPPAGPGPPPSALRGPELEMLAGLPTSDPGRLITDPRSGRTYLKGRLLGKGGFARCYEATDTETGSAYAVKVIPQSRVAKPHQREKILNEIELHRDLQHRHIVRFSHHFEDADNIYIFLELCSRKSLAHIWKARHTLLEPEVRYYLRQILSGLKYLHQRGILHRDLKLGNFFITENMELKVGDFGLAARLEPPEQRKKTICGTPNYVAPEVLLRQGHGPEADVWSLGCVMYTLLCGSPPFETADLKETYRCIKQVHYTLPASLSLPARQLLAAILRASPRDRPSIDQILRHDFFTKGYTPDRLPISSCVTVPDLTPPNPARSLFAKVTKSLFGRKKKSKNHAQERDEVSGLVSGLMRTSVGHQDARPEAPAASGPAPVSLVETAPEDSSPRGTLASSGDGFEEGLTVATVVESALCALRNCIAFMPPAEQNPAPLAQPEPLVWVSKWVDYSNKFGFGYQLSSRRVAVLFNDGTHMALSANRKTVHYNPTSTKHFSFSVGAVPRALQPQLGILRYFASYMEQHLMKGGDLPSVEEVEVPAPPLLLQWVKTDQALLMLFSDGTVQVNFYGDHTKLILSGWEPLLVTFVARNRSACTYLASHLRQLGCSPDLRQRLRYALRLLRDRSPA
Sequence of PLK1 (P53350 whole entry): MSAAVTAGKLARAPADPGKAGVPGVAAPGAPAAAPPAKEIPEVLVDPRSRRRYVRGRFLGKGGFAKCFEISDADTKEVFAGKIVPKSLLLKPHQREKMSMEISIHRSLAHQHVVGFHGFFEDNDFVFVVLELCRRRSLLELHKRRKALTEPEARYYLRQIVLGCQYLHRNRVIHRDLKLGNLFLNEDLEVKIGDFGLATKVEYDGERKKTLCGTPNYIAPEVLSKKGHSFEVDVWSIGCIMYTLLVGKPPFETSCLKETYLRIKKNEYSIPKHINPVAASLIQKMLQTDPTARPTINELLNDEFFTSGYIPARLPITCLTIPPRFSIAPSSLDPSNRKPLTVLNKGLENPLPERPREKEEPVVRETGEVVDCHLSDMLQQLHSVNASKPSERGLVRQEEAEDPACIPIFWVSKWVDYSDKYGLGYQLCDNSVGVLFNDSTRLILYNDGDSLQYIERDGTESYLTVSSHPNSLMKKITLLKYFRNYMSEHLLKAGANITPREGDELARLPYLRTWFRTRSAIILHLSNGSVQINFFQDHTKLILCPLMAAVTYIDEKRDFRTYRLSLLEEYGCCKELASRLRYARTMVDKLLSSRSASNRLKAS

One may read the IC50 as the concentration that gives 50% inhibition. For the compound `CN1C(=O)[C@@H](CC(F)(F)F)N(CCC(F)(F)F)c2nc(-n3ccnc3-c3ccc(F)cc3F)ncc21` [Example 293, (R)-2-(2-(2,4-difluorophenyl)-1H-imidazol-1-yl)-5-methyl-7-(2,2,2-trifluoroethyl)-8-(3,3,3-trifluoropropyl)-7,8-dihydropteridin-6(5H)-one], the IC50 against PLK1 was 1 to 10 µM; at PLK2 (setting [1]), less than 1 µM; on PLK3 it was 10 to 50 µM. For the same compound, the “relative PLK2 activity of the enantiomers” value on PLK2 (compared with the opposite enantiomer) is “more active compound”.
Regarding `[2H]C([2H])([2H])N1C(=O)C(C([2H])([2H])C([2H])([2H])[2H])N(C([2H])(C([2H])([2H])[2H])C([2H])([2H])[2H])c2nc(-n3ccnc3-c3cc(F)cc(F)c3)ncc21` (racemic) [Example 163, 2-(2-(3,5-difluorophenyl)-1H-imidazol-1-yl)-7-perdeuteroethyl-8-perdeuteroisopropyl-5-trideuteromethyl-7,8-dihydropteridin-6(5H)-one], the IC50 against PLK1 was less than 1 µM; on PLK2 (setting [1]) it was less than 1 µM; on PLK3, 10 to 50 µM.
Turning to `CC[C@@H]1C(=O)N(C)c2cnc(-c3cn[nH]c3-c3ccccn3)nc2N1C(C)C` [Example 313, (R)-7-ethyl-8-isopropyl-5-methyl-2-(5-(pyridin-2-yl)-1H-pyrazol-4-yl)-7,8-dihydropteridin-6(5H)-one], the concentration for half-maximal inhibition (IC50) was 1 to 10 µM on PLK1, less than 1 µM on PLK2 (setting [1]) and 1 to 10 µM on PLK3.
In the case of `CCC1C(=O)N(C)c2cnc(-c3cn[nH]c3-c3nccs3)nc2N1c1cccc(C#N)c1` (stereo not shown) [Example 372, 3-(7-ethyl-5-methyl-6-oxo-2-(5-(thiazol-2-yl)-1H-pyrazol-4-yl)-6,7-dihydropteridin-8(5H)-yl)benzonitrile], the IC50 against PLK1 is 1 to 10 µM; on PLK2 (setting [1]), less than 1 µM; at PLK3 it was 1 to 10 µM.
For the compound `CCC12CCCCN1c1nc(-n3ccnc3-c3ccccc3)ncc1N(C)C2=O` (racemic) [Example 238, (+/−) 6a-ethyl-5-methyl-2-(2-phenyl-1H-imidazol-1-yl)-7,8,9,10-tetrahydro-5H-pyrido[2,1-h]pteridin-6(6aH)-one], the IC50 was 1 to 10 µM at PLK1, less than 1 µM on PLK2 (setting [1]) and 10 to 50 µM at PLK3.
On to `CC[C@@H]1C(=O)N(C)c2cnc(-n3ccnc3-c3cncc(F)c3)nc2N1C1CCCC1` [Example 99, (R)-8-cyclopentyl-7-ethyl-2-(2-(5-fluoropyridin-3-yl)-1H-imidazol-1-yl)-5-methyl-7,8-dihydropteridin-6(5H)-one], for which the IC50 on PLK1, on PLK2 (setting [1]) and on PLK3 was less than 1 µM in each case.
For the compound `CC[C@@]12CCCN1c1nc(-n3ccnc3-c3cc(F)cc(F)c3)ncc1N(C)C2=O` [Example 226, (S)-2-(2-(3,5-difluorophenyl)-1H-imidazol-1-yl)-6a-ethyl-5-methyl-6a,7,8,9-tetrahydropyrrolo[2,1-h]pteridin-6(5H)-one], the figures for the IC50 against PLK1, on PLK2 (setting [1]) and on PLK3 were 10 to 50 µM, less than 1 µM and 10 to 50 µM, respectively.
Regarding `CC[C@@H]1C(=O)N(C)c2cnc(-n3ccnc3-c3ccc(F)cc3)nc2N1CC1CC1` [Example 322, (R)-8-(cyclopropylmethyl)-7-ethyl-2-(2-(4-fluorophenyl)-1H-imidazol-1-yl)-5-methyl-7,8-dihydropteridin-6(5H)-one], the figures for the IC50 against PLK1, on PLK2 (setting [1]) and at PLK3 were 1 to 10 µM, less than 1 µM and 1 to 10 µM, respectively.
As for `CC[C@@H]1C(=O)N(C)c2cnc(-c3cccc(OCc4ccccc4)c3)nc2N1C1CCCC1` [Example 72, (R)-2-(3-(benzyloxy)phenyl)-8-cyclopentyl-7-ethyl-5-methyl-7,8-dihydropteridin-6(5H)-one], the IC50 against PLK1 was greater than 50 µM; on PLK2 (setting [1]), 10 to 50 µM; on PLK3 it was greater than 50 µM.
`CC[C@@H]1C(=O)N(C)c2cnc(-c3ccncc3CNS(C)(=O)=O)nc2N1C(C)C` [Example 131, (R)—N-((4-(7-ethyl-8-isopropyl-5-methyl-6-oxo-5,6,7,8-tetrahydropteridin-2-yl)pyridin-3-yl)methyl)methanesulfonamide]: the results for the IC50 against PLK1, at PLK2 (setting [1]) and at PLK3 were greater than 50 µM, 10 to 50 µM and greater than 50 µM, respectively.
As for `CN1C(=O)[C@H]2CCCN2c2nc(-c3ccncc3)ncc21` [Example 34, (R)-5-methyl-2-(pyridin-4-yl)-6a,7,8,9-tetrahydropyrrolo[2,1-h]pteridin-6(5H)-one], the IC50 at PLK1, at PLK2 (setting [1]) and on PLK3 was greater than 50 µM each time.
For the compound `CC[C@@H]1C(=O)N(C)c2cnc(-c3ccncc3CN)nc2N1C(C)C` [Example 126, (R)-2-(3-(aminomethyl)pyridin-4-yl)-7-ethyl-8-isopropyl-5-methyl-7,8-dihydropteridin-6(5H)-one], the IC50 is greater than 50 µM against PLK1, 10 to 50 µM at PLK2 (setting [1]) and greater than 50 µM at PLK3.
As for `CC[C@@H]1C(=O)N(C)c2cnc(-c3sc(N)nc3-c3ccn[nH]3)nc2N1C(C)C` [Example 337, (R)-2-(2-amino-4-(1H-pyrazol-5-yl)thiazol-5-yl)-7-ethyl-8-isopropyl-5-methyl-7,8-dihydropteridin-6(5H)-one], the IC50 on PLK1 is 1 to 10 µM; at PLK2 (setting [1]), less than 1 µM; on PLK3, 1 to 10 µM.
Consider `CC[C@]1(C)C(=O)N(C)c2cnc(-c3cn[nH]c3-c3nccs3)nc2N1CCC(F)(F)F` [Example 310, (R)-7-ethyl-5,7-dimethyl-2-(5-(thiazol-2-yl)-1H-pyrazol-4-yl)-8-(3,3,3-trifluoropropyl)-7,8-dihydropteridin-6(5H)-one], for which the IC50 on PLK1 is less than 1 µM; on PLK2 (setting [1]) it was less than 1 µM; at PLK3, greater than 50 µM.
For `CC[C@@H]1C(=O)N(C)c2cnc(-n3ccnc3-n3ccccc3=O)nc2N1C1CCCC1` [Example 113, (R)-8-cyclopentyl-7-ethyl-5-methyl-2-(2-(2-oxopyridin-1(2H)-yl)-1H-imidazol-1-yl)-7,8-dihydropteridin-6(5H)-one], the IC50 against PLK1 was 1 to 10 µM; at PLK2 (setting [1]) it was less than 1 µM; at PLK3, 1 to 10 µM.
As to `CCC12CCCCN1c1nc(-n3ccnc3-c3ccc(F)cc3F)ncc1N(C)C2=O` (racemic) [Example 257, (+/−) 2-(2-(2,4-difluorophenyl)-1H-imidazol-1-yl)-6a-ethyl-5-methyl-7,8,9,10-tetrahydro-5H-pyrido[2,1-h]pteridin-6(6aH)-one], the IC50 was 10 to 50 µM against PLK1, less than 1 µM on PLK2 (setting [1]) and 10 to 50 µM on PLK3.
Regarding `CCC1C(=O)N(C)c2cnc(-n3ccnc3)nc2N1c1cccc(-n2cccn2)c1` (stereo not shown) [Example 336, 8-(3-(1H-pyrazol-1-yl)phenyl)-7-ethyl-2-(1H-imidazol-1-yl)-5-methyl-7,8-dihydropteridin-6(5H)-one], the IC50 at PLK1 was 10 to 50 µM; on PLK2 (setting [1]), 10 to 50 µM; at PLK3 it was greater than 50 µM.
Consider `CC[C@@H]1C(=O)N(C)c2cnc(-n3ccnc3-c3cccc(F)c3F)nc2N1C1CCOC1` (stereo partly drawn) [Example 253, (7R)-2-(2-(2,3-difluorophenyl)-1H-imidazol-1-yl)-7-ethyl-5-methyl-8-(tetrahydrofuran-3-yl)-7,8-dihydropteridin-6(5H)-one], for which the figures for the IC50 against PLK1, at PLK2 (setting [1]) and on PLK3 were less than 1 µM, less than 1 µM and 1 to 10 µM, respectively.
For `CC[C@@H]1CC[C@@]2(CC)C(=O)N(C)c3cnc(-n4ccnc4)nc3N12` [Example 334, (6aS,9R)-6a,9-diethyl-2-(1H-imidazol-1-yl)-5-methyl-6a,7,8,9-tetrahydropyrrolo[2,1-h]pteridin-6(5H)-one], the IC50 against PLK1 is 1 to 10 µM; on PLK2 (setting [1]), 1 to 10 µM; on PLK3 it was 10 to 50 µM.
Turning to `CC[C@@H]1C(=O)N(C)c2cnc(-n3ccnc3-c3ccc(F)cc3)nc2N1C(C)C1CC1` (stereo partly drawn) [Example 351, (7R)-8-(1-cyclopropylethyl)-7-ethyl-2-(2-(4-fluorophenyl)-1H-imidazol-1-yl)-5-methyl-7,8-dihydropteridin-6(5H)-one], the IC50 on PLK1 was 1 to 10 µM; at PLK2 (setting [1]), less than 1 µM; on PLK3, 1 to 10 µM.
On to `[2H]C([2H])([2H])N1C(=O)C(C([2H])([2H])C([2H])([2H])[2H])N(C([2H])(C([2H])([2H])[2H])C([2H])([2H])[2H])c2nc(-n3ccnc3-c3cccc(F)c3)ncc21` (racemic) [Example 180, 7-perdeuteroethyl-2-(2-(3-fluorophenyl)-1H-imidazol-1-yl)-8-perdeuteroisopropyl-5-trideuteromethyl-7,8-dihydropteridin-6(5H)-one], for which the IC50 was less than 1 µM at PLK1, less than 1 µM on PLK2 (setting [1]) and 1 to 10 µM at PLK3.
Turning to `CC[C@@H]1C(=O)N(C)c2cnc(-c3ccncc3NC(=O)OC)nc2N1C(C)C` [Example 117, (R)-methyl 4-(7-ethyl-8-isopropyl-5-methyl-6-oxo-5,6,7,8-tetrahydropteridin-2-yl)pyridin-3-ylcarbamate], the IC50 against PLK1 was 1 to 10 µM; on PLK2 (setting [1]), 1 to 10 µM; at PLK3 it was greater than 50 µM.
In the case of “7-perdeuteroethyl-8-perdeuteroisopropyl-5-trideuteromethyl-2-(3-phenylpyridin-4-yl)-7,8-dihydropteridin-6(5H)-one [Example 146]”, the IC50 against PLK1, at PLK2 and on PLK3 was less than 1 µM throughout.
For `CC[C@@H]1C(=O)N(C)c2cnc(-n3ncnc3-c3ccccc3)nc2N1C1CCC1` [Example 208, (R)-8-cyclobutyl-7-ethyl-5-methyl-2-(5-phenyl-1H-1,2,4-triazol-1-yl)-7,8-dihydropteridin-6(5H)-one], the IC50 against PLK1, at PLK2 (setting [1]) and on PLK3 was less than 1 µM throughout.
With `CC[C@@H]1C(=O)N(C)c2cnc(-c3ccnc(NC)c3)nc2N1C1CCCC1` [Example 20, (R)-8-cyclopentyl-7-ethyl-5-methyl-2-(2-(methylamino)pyridin-4-yl)-7,8-dihydropteridin-6(5H)-one], the IC50 was less than 1 µM against PLK1, less than 1 µM on PLK2 (setting [1]) and 10 to 50 µM on PLK3.
